# Non-standard residues stand in square brackets, D forms with d. Residues, ends and D or L forms follow the SMILES beside them. d(hArg(Et2)) = CCN=C(NCC)NCCCC[C@@H](N)C(=O)O; hArg(Et2) = CCN=C(NCC)NCCCC[C@H](N)C(=O)O; dPhe(4-Cl) = N[C@H](Cc1ccc(Cl)cc1)C(=O)O; d2Nal = N[C@H](Cc1ccc2ccccc2c1)C(=O)O; dCit = NC(=O)NCCC[C@@H](N)C(=O)O; d3Pal = N[C@H](Cc1cccnc1)C(=O)O
# Experiments:
# Type in all cases: in vivo, human
# [1] = test system: women undergoing COH and subsequent IVF and ET; experiment: safety and tolerability in the clinical trial of COH with subsequent IVF and ET; details: daily subcutaneous 2.0 mg cetrorelix without recLH
# Excerpt: (§1) Although this treatment is suitable for all types of IVF patients (e.g. within the age range 18 to 45 years, with or without displaying polycystic ovarian syndrome and with or without a regular cycle), the following selection criteria are set forth in the investigation: healthy female partners of infertile couples; age at the time of screening between 20 and 39 years; a regular menstrual cycle, and willing to give a written informed consent. However, no special precautions concerning body weight or body mass index are taken.
# (§2) Prior to the first administration of recombinant FSH a blood sample is taken for hormone analysis (estradiol and LH) and a standard urinary hCG assay is performed to exclude pregnancy. Recombinant FSH treatment is started at day 2 or 3 of menses by a daily subcutaneous injection until the day of hCG administration. During the first 5 days of recombinant FSH treatment the daily dose is fixed to 150 IU. […]
# (§3) A subcutaneous injection with urinary hCG (10,000 IU) is administered, when at least three follicles exceed a diameter of 17 mm as measured by ultrasound scan and subsequently oocyte retrieval is performed typically 30-36 hours later.
# [2] = test system: IVF-patients; experiment: implantation and pregnancy rates after IVF and embryo transfer following COH
# Excerpt: as §1
# Prior to the first administration of recombinant FSH a blood sample is taken for hormone analysis (estradiol and LH) and a standard urinary hCG assay is performed to exclude pregnancy. Recombinant FSH treatment is started at day 2 or 3 of menses by a daily subcutaneous injection until the day of hCG administration. During the first 5 days of recombinant FSH treatment the daily dose is fixed to 150 IU. Starting at day 6, blood samples for hormone analysis are taken once every two days prior to drug administration and ultrasonographic monitoring of follicle growth is performed to adjust, if necessary, the daily injectable doses of recombinant FSH.
# as §3
# Oocytes are retrieved from the human females that have undergone COH as set forth in example 1. The oocytes are subsequently fertilized in vitro and two days later no more than two embryos are transferred to the uterus of the patient. […] Lower implantation and pregnancy rates are obtained in IVF-patients, in whom premature LH surges are prevented by a daily dose of 0.25 mg cetrorelix.
# [3] = test system: premature endogenous LH-surge; experiment: open-label controlled clinical trial: premature endogenous LH-surge prevention in COH; details: daily subcutaneous 2.0 mg cetrorelix without recLH
# Excerpt: as §1, §2, §3
# [4] = test system: premature endogenous LH-surge; experiment: Examples 1 and 2 repeated using ganirelix instead of cetrorelix; details: 2.0 mg ganirelix instead of 2.0 mg cetrorelix
# Excerpt: as §1, §2
# A subcutaneous injection with urinary hCG (10,000 IU) is administered, when at least three follicles exceed a diameter of 17 mm as measured by ultrasound scan and subsequently oocyte retrieval is performed typically 30-36 hours later. […]
# [5] = daily 2.0 mg cetrorelix without co-administered recLH
smiles,measurement,setting,value
CC(=O)N[C@H](Cc1ccc2ccccc2c1)C(=O)N[C@H](Cc1ccc(Cl)cc1)C(=O)N[C@H](Cc1cccnc1)C(=O)N[C@@H](CO)C(=O)N[C@@H](Cc1ccc(O)cc1)C(=O)N[C@H](CCCNC(N)=O)C(=O)N[C@@H](CC(C)C)C(=O)N[C@@H](CCCNC(=N)N)C(=O)N1CCC[C@H]1C(=O)N[C@H](C)C(N)=O [cetrorelix] (Ac-[d2Nal][dPhe(4-Cl)][d3Pal]SY[dCit]LRP[dA]-NH2),adverse effects,[1],no apparent adverse effects
same,tolerability,[1],well-tolerated
same,implantation rates (rank among three treatment groups),[2]; daily 0.25 mg cetrorelix,Lower
same,pregnancy rates (rank among three treatment groups),[2]; daily 0.25 mg cetrorelix,Lower
same,implantation rates (rank among three treatment groups),[2]; [5],lowest
same,pregnancy rates (rank among three treatment groups),[2]; [5],lowest
same,efficacy in preventing a premature LH-rise,[3]; compared with 0.25 mg,more efficacious
same,effectiveness in preventing a premature LH-rise in patients with bodyweight of more than 75 kg,"[3]; IVF patients undergoing COH, bodyweight more than 75 kg",especially apparent
CCN=C(NCC)NCCCC[C@H](NC(=O)[C@H](CC(C)C)NC(=O)[C@@H](CCCCNC(=NCC)NCC)NC(=O)[C@H](Cc1ccc(O)cc1)NC(=O)[C@H](CO)NC(=O)[C@@H](Cc1cccnc1)NC(=O)[C@@H](Cc1ccc(Cl)cc1)NC(=O)[C@@H](Cc1ccc2ccccc2c1)NC(C)=O)C(=O)N1CCC[C@H]1C(=O)N[C@H](C)C(N)=O [ganirelix] (Ac-[d2Nal][dPhe(4-Cl)][d3Pal]SY[d(hArg(Et2))]L[hArg(Et2)]P[dA]-NH2),"results (LH-rise prevention, tolerability, implantation and pregnancy rates) compared with examples 1 and 2",[4],very similar
